Assay results from PubChem BioAssay AID248 (DTP/NCI, 2004).
Values joined by “and” are separate entries in the source; they are usually repeats but may differ in a detail not shown here. Identical values can stand only once. Inconclusive results and toxic doses are left out. Peptide text beside a SMILES is read from it.

System: L1210 leukemia ip in BDF1 mice, survival T/C
Experiment: NCI In Vivo Anticancer Drug Screen. Data for tumor model L1210 Leukemia (intraperitoneal) in B6D2F1 (BDF1) mice
Details: endpoint: mean survival time, higher = longer survival
In short: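 Each compound was tested against a transplantable tumor grown in mice. The endpoint was survival, with treated animals benchmarked against vehicle controls as a simple ratio.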

[1] = dose: 100.0 mg/kg/injection, schedule: Q04DX003 (ip), vehicle: saline
[2] = dose: 200.0 mg/kg/injection, schedule: Q04DX003 (ip), vehicle: saline
[3] = dose: 400.0 mg/kg/injection, schedule: Q04DX003 (ip), vehicle: saline
[4] = dose: 100.0 mg/kg/injection, schedule: Q04DX003 (ip), vehicle: saline with Tween-80
[5] = dose: 200.0 mg/kg/injection, schedule: Q04DX003 (ip), vehicle: saline with Tween-80
[6] = dose: 400.0 mg/kg/injection, schedule: Q04DX003 (ip), vehicle: saline with Tween-80
[7] = dose: 50.0 mg/kg/injection, schedule: Q01DX009 (ip), vehicle: saline with Tween-80
[8] = dose: 100.0 mg/kg/injection, schedule: Q01DX009 (ip), vehicle: saline with Tween-80
[9] = dose: 25.0 mg/kg/injection, schedule: Q01DX009 (ip), vehicle: saline
[10] = dose: 50.0 mg/kg/injection, schedule: Q01DX009 (ip), vehicle: saline
[11] = dose: 100.0 mg/kg/injection, schedule: Q01DX001 (ip), vehicle: saline with Tween-80
[12] = dose: 100.0 mg/kg/injection, schedule: Q04DX002 (ip), vehicle: Klucel (hydroxypropylcellulose) (HPC)
[13] = dose: 200.0 mg/kg/injection, schedule: Q04DX002 (ip), vehicle: Klucel (hydroxypropylcellulose) (HPC)
[14] = dose: 400.0 mg/kg/injection, schedule: Q04DX002 (ip), vehicle: Klucel (hydroxypropylcellulose) (HPC)
[15] = dose: 100.0 mg/kg/injection, schedule: Q01DX001 (ip), vehicle: carboxymethylcellulose (CMC)
[16] = dose: 200.0 mg/kg/injection, schedule: Q01DX001 (ip), vehicle: carboxymethylcellulose (CMC)
[17] = dose: 200.0 mg/kg/injection, schedule: Q01DX009 (ip), vehicle: saline with Tween-80

SMILES: NCCCCC(N)C(=O)NC(CCCN=C(N)N)C(=O)O (stereo not drawn) (H-Lys-Arg-OH; configuration not given here)
- T/C (dose: 50.0 mg/kg/injection, schedule: Q04DX003 (ip), vehicle: water): 117 % of control
- T/C (dose: 100.0 mg/kg/injection, schedule: Q01DX009 (ip), vehicle: water): 108 % of control
- T/C (dose: 100.0 mg/kg/injection, schedule: Q04DX003 (ip), vehicle: water): 121 % of control
- T/C (dose: 200.0 mg/kg/injection, schedule: Q01DX009 (ip), vehicle: water): 97 % of control
- T/C (dose: 200.0 mg/kg/injection, schedule: Q04DX003 (ip), vehicle: water): 111 % of control
- T/C (dose: 400.0 mg/kg/injection, schedule: Q04DX003 (ip), vehicle: water): 115 % of control

SMILES: COC1C=CC2OC(c3ccccc3)OCC2O1 (configuration not stated)
- T/C (dose: 100.0 mg/kg/injection, schedule: Q01DX001 (ip), vehicle: other): 101 % of control
- T/C (dose: 200.0 mg/kg/injection, schedule: Q01DX001 (ip), vehicle: other): 101 % of control
- T/C (dose: 400.0 mg/kg/injection, schedule: Q01DX001 (ip), vehicle: other): 109 % of control

SMILES: O=C(C=C(C(F)(F)F)C(F)(F)F)c1ccc(Br)cc1
- T/C (dose: 25.0 mg/kg/injection, schedule: Q04DX003 (ip), vehicle: other): 88 % of control
- T/C (dose: 50.0 mg/kg/injection, schedule: Q04DX003 (ip), vehicle: other): 94 % of control

SMILES: CCOC(=O)C1NC(=O)N(c2ccccc2)C1=O (configuration not stated)
- T/C [1]: 103 % of control
- T/C [2]: 108 % of control
- T/C [3]: 104 % of control

SMILES: CC(C)(C)c1ccc(CN2CCN(C(c3ccccc3)c3ccc(Cl)cc3)CC2)cc1 (configuration not stated)
- T/C (dose: 12.5 mg/kg/injection, schedule: Q01DX009 (ip), vehicle: Klucel (hydroxypropylcellulose) (HPC)): 98 % of control
- T/C (dose: 25.0 mg/kg/injection, schedule: Q01DX009 (ip), vehicle: Klucel (hydroxypropylcellulose) (HPC)): 91 % of control
- T/C (dose: 25.0 mg/kg/injection, schedule: Q04DX003 (ip), vehicle: Klucel (hydroxypropylcellulose) (HPC)): 93 % of control
- T/C (dose: 50.0 mg/kg/injection, schedule: Q01DX009 (ip), vehicle: Klucel (hydroxypropylcellulose) (HPC)): 91 % of control
- T/C (dose: 50.0 mg/kg/injection, schedule: Q04DX003 (ip), vehicle: Klucel (hydroxypropylcellulose) (HPC)): 93 % of control
- T/C (dose: 100.0 mg/kg/injection, schedule: Q04DX003 (ip), vehicle: Klucel (hydroxypropylcellulose) (HPC)): 96 % of control
- T/C (dose: 200.0 mg/kg/injection, schedule: Q04DX003 (ip), vehicle: Klucel (hydroxypropylcellulose) (HPC)): 91 % of control

SMILES: O=C(O)CCS(=O)(=O)c1ccc(N(CCCl)CCCl)cc1
- T/C [4]: 107 % of control
- T/C [5]: 102 % of control
- T/C [6]: 105 % of control

SMILES: CN(C)C(=O)Nc1cccc(OC(=O)NC2CCCC2)c1
- T/C [4]: 100 % of control
- T/C [5]: 95 % of control
- T/C [6]: 100 % of control

SMILES: CC(=O)C1C(=O)OC(C)=C(C(=O)O)C1=O (configuration not stated)
- T/C [7]: 102 % of control
- T/C [8]: 100 % of control
- T/C [4]: 92 % of control
- T/C [5]: 103 % of control

SMILES: Nc1nc(N)c2nc(CNc3ccc(C(=O)NC(CC(=O)O)C(=O)O)cc3)cnc2n1 (configuration not stated)
- T/C (dose: 1.56 mg/kg/injection, schedule: Q01DX Z (ip), vehicle: saline): 114 % of control
- T/C (dose: 3.12 mg/kg/injection, schedule: Q01DX009 (ip), vehicle: saline): 110 % of control
- T/C (dose: 3.13 mg/kg/injection, schedule: Q01DX Z (ip), vehicle: saline): 108 % of control
- T/C [9]: 151 % of control
- T/C (dose: 25.0 mg/kg/injection, schedule: Q01DX Z (ip), vehicle: saline): 172 % of control
- T/C [10]: 166 % of control
- T/C (dose: 50.0 mg/kg/injection, schedule: Q01DX Z (ip), vehicle: saline): 118 % of control
- T/C (dose: 100.0 mg/kg/injection, schedule: Q01DX009 (ip), vehicle: saline): 95 % of control
- T/C (dose: 100.0 mg/kg/injection, schedule: Q01DX Z (ip), vehicle: saline): 114 % of control and 88 % of control
- T/C (dose: 200.0 mg/kg/injection, schedule: Q01DX Z (ip), vehicle: saline): 95 % of control

SMILES: COc1cccc2c1C(=O)c1c(O)c3c(c(O)c1C2=O)CC(O)(C(C)=O)CC3OC1CC2NC(=O)OC2C(C)O1 (configuration not stated)
- T/C [11]: 114 % of control

SMILES: O=C(NC(CO)C(O)c1ccc([N+](=O)[O-])cc1)C(Cl)Cl (configuration not stated)
- T/C [4]: 102 % of control
- T/C [5]: 101 % of control
- T/C [6]: 106 % of control

SMILES: Nc1cccc(CNc2ccc(C(=O)O)cc2)c1
- T/C [11]: 113 % of control
- T/C (dose: 200.0 mg/kg/injection, schedule: Q01DX001 (ip), vehicle: saline with Tween-80): 103 % of control
- T/C (dose: 400.0 mg/kg/injection, schedule: Q01DX001 (ip), vehicle: saline with Tween-80): 98 % of control

SMILES: NC(CSC(c1ccccc1)(c1ccccc1)c1ccc(-c2ccccc2)cc1)C(=O)O (configuration not stated)
- T/C (dose: 12.5 mg/kg/injection, schedule: Q01DX009 (ip), vehicle: saline): 103 % of control
- T/C [9]: 104 % of control
- T/C [10]: 107 % of control

SMILES: O=C(Nc1ccccc1)Nc1ccccc1Cl
- T/C [12]: 110 % of control
- T/C [13]: 93 % of control
- T/C [14]: 107 % of control

SMILES: CC(C)O[Si](C)(C)CCl
- T/C (dose: 50.0 mg/kg/injection, schedule: Q01DX001 (ip), vehicle: carboxymethylcellulose (CMC)): 98 % of control
- T/C [15]: 86 % of control
- T/C [16]: 90 % of control
- T/C (dose: 400.0 mg/kg/injection, schedule: Q01DX001 (ip), vehicle: carboxymethylcellulose (CMC)): 92 % of control

SMILES: CON(C)C(=O)CCN1CC1
- T/C (dose: 10.0 mg/kg/injection, schedule: Q01DX009 (ip), vehicle: saline): 97 % of control
- T/C (dose: 20.0 mg/kg/injection, schedule: Q01DX009 (ip), vehicle: saline): 94 % of control
- T/C (dose: 20.0 mg/kg/injection, schedule: Q04DX003 (ip), vehicle: saline): 100 % of control
- T/C (dose: 40.0 mg/kg/injection, schedule: Q01DX009 (ip), vehicle: saline): 97 % of control
- T/C (dose: 40.0 mg/kg/injection, schedule: Q04DX003 (ip), vehicle: saline): 100 % of control
- T/C (dose: 80.0 mg/kg/injection, schedule: Q04DX003 (ip), vehicle: saline): 104 % of control
- T/C [1]: 94 % of control

SMILES: CCCP(CCC)N(CC)CC
- T/C [1]: 107 % of control
- T/C [2]: 101 % of control
- T/C [3]: 104 % of control

SMILES: COC(=O)/C=C(\C)Oc1c(Cl)c(Cl)c(Cl)c(Cl)c1Cl
- T/C (dose: 100.0 mg/kg/injection, schedule: Q01DX009 (ip), vehicle: saline sonified): 96 % of control
- T/C (dose: 200.0 mg/kg/injection, schedule: Q01DX009 (ip), vehicle: saline sonified): 100 % of control
- T/C (dose: 400.0 mg/kg/injection, schedule: Q01DX009 (ip), vehicle: saline sonified): 100 % of control

SMILES: CN(C)C(=O)NN1CCCCCC1
- T/C [1]: 96 % of control
- T/C [2]: 96 % of control
- T/C [3]: 100 % of control

SMILES: COC(=O)c1ccccc1NC(=O)C(Br)C(Br)C(=O)O (configuration not stated)
- T/C [7]: 101 % of control
- T/C [8]: 96 % of control
- T/C [17]: 117 % of control

SMILES: CC(=O)OC1CC2CC1C1C=CCC21 (configuration not stated)
- T/C [7]: 88 % of control
- T/C [8]: 86 % of control
- T/C (dose: 100.0 mg/kg/injection, schedule: Q04DX003 (ip), vehicle: saline sonified): 94 % of control
- T/C (dose: 200.0 mg/kg/injection, schedule: Q04DX003 (ip), vehicle: saline sonified): 89 % of control

SMILES: CNC(=O)Nc1cccc([N+](=O)[O-])c1OC
- T/C [12]: 100 % of control
- T/C [13]: 103 % of control
- T/C [14]: 106 % of control

SMILES: CCCCN(C)N=Nc1ccccc1C(=O)OC
- T/C [15]: 107 % of control
- T/C [16]: 117 % of control

SMILES: CC(C(=O)c1ccc(Br)cc1)C(Br)c1ccccc1 (configuration not stated)
- T/C [8]: 95 % of control
- T/C [4]: 96 % of control
- T/C [17]: 95 % of control
- T/C [5]: 91 % of control
- T/C (dose: 400.0 mg/kg/injection, schedule: Q01DX009 (ip), vehicle: saline with Tween-80): 95 % of control
- T/C [6]: 98 % of control

SMILES: CC1=CCC(=C(C)C)C1C(=O)NC1CCCCC1 (configuration not stated)
- T/C (dose: 100.0 mg/kg/injection, schedule: Q01DX001 (ip), vehicle: saline): 97 % of control
- T/C (dose: 100.0 mg/kg/injection, schedule: Q01DX009 (ip), vehicle: propolene glycol): 105 % of control
- T/C (dose: 200.0 mg/kg/injection, schedule: Q01DX009 (ip), vehicle: propolene glycol): 109 % of control
- T/C (dose: 400.0 mg/kg/injection, schedule: Q01DX001 (ip), vehicle: saline): 100 % of control
- T/C (dose: 400.0 mg/kg/injection, schedule: Q01DX009 (ip), vehicle: propolene glycol): 106 % of control
